Laboratory results taken from publication PMC5870190, “A three-in-one-bullet for oesophageal cancer: replication fork collapse, spindle attachment failure and enhanced radiosensitivity generated by a ruthenium(II) metallo-intercalator” (Chemical Science, 2017).

Key:
[1] = test system: hSAEC1-KT normal human small airway epithelial cells; test: MTT assay, hSAEC1-KT cells; assay type: cell-based
Experimental: MTT assay. OE21, FLO-1 or hSAEC1-KT cells were seeded in 96 well plates at 20,000 cells/well (for 24 h treatment) or 10,000 cells/well (for 72 h treatment) and allowed to adhere for 24 h before treatment. OE33 cells were seeded in 48 well plates at 40,000 cells/well (24 h treatment) or 20,000 cells/well (72 h treatment). Cancer cell lines were treated with chemicals dissolved in RPMI media for consistency. After incubation, 0.5 mg/ml MTT (thiazolyl blue tetrazolium bromide) dissolved in serum-free medium was added for 60 minutes and the formazan product eluted using acidified isopropanol.
The absorbance at 540 nm was quantified by plate reader (reference wavelength 650 nm). The metabolic activity of the cell population was determined as a percentage of a negative (solvent) control. […]
(§1) For the determination of mutation induction, from the untreated and each treated condition, 2x10^5 cells were plated in 10 x 100 mm dishes in selective media (regular media

OE21 cells [2] = test: Trypan Blue exclusion assay; assay type: cell-based, human; conditions: OE21, Ru1 21 μM
Experimental: Trypan Blue exclusion assay. OE21 cells were seeded in 6 well plates at 40,000 cells/well and allowed to adhere for 24 h.
Cell cultures were treated as stated, media containing detached/dead cells were removed and retained, and adherent collected by Trypsin and centrifugation. Adherent and detached cells for each sample were combined, concentrated via centrifugation and re-suspended in 0.5 ml PBS containing 0.04% Trypan Blue solution. Trypan Blue negative and Trypan Blue positive cells were counted by haemocytometer. A minimum of 200 cells were counted for each sample. […]
as §1

OE21 cells [3] = test: Quantification of aberrant mitoses (CLSM); assay type: cell-based, human; conditions: OE21, IC50 concentration, 24 h
Experimental: Microscopy and immunofluorescence. Cells were seeded on ibidi 35 mm µ-dishes (Thistle Scientific), allowed to adhere for 24 h and treated as stated in the main text. Cell media was removed, cells washed with PBS and fixed with formaldehyde (4%, 10 mins). Cells were permeablised with Triton (0.5% in PBS, 5 mins) and washed with PBS. Samples were blocked with BSA (3% in PBS-T) for 1 h before incubation with primary antibody (either anti-α-tubulin or anti-γ H2AX, 1/500 dilution) in BSA (3% in PBS-T) for 1 h. Samples were washed 3x in PBS-T and incubated with Alexa Fluor-conjugated secondary antibodies (3% in PBS-T, 1 h, 1/250 dilution). After further washing (3x5 min PBS-T) samples were co-stained with DAPI (5 ng/ml, 2 min), fresh PBS added and visualised by confocal microscopy. Samples were visualised using a Zeiss LSM 780 or LSM 710 inverted confocal microscope and EC Plan-Neofluar 40x/1.30 Oil objectives. […]
as §1

[4] = test system: OE21, OE33 or FLO-1 cells; test: Clonogenic survival assay with IR, three oesophageal cancer cell lines; assay type: cell-based, human
Experimental: Clonogenic survival assay. OE21, OE33 or FLO1 cells were treated with 2 µM Ru1 for 24 h before irradiation with 0-8 Gy using a 137Cs γ-irradiator (IBL637, CIS Bio Int.; dose rate = 0.809 Gy min−1). 1 h after irradiation, cells were detached using Trypsin and re-seeded in 6 well plates at a density of 300 – 20,000 cells/well in triplicate in an incrementally greater number of cells with increasing IR dose to ensure adequate colony formation. Cells were incubated for 7–14 days after re-seeding to allow colony formation before being fixed with 10% methanol, 10% acetic acid and stained with 0.4% methylene blue. OE33 cells required an additional formaldehyde fixation (4% in PBS, 5 mins) step before the addition of methylene blue solution or colony detachment occurred. Colonies containing 50 cells or greater were counted using a Gelcount instrument and accompanying software (Oxford Optronix). Plating efficiencies were determined for each treatment condition and normalised to an untreated control to provide the surviving fraction (S. F.). S.F. versus radiation dose curves were plotted in GraphPad Prism and fit using a second order polynomial function (R2 values > 0.99). Dose modifying factors (DMF) at a SF=0.1 were calculated using the equation: Dose modifying factor (DMF) = IR dose to give S.F. 0.1/IR dose plus compound to give S.F.0.1. […]

**Q.** Which results are given for [Ru(phen)2(tpphz)]^2+ [Ru1]?
**A.** IC50 ([1]; 24 h constant exposure): 78.5 ± 1.3 µM; IC50 ([1]; 72 h constant exposure): 22 ± 2 µM; necrotic cell death (Trypan blue staining) (OE21 cells [2]): ~20%; mitotic aberrations, share of total cell population (OE21 cells [3]): ~8%; surviving fraction (S.F.), single-agent ([4]; 2 μM, 24 h, no IR, all three cell lines): > 0.87; dose modification factor (DMF) at surviving fraction of 0.1 ([4]; Ru1 2 μM or sub-cytotoxic cisplatin (500 nM OE21 and OE33, 300 nM FLO-1), 24 h before IR, range over three cell lines): 1.19–1.31
